Data from patent US8334382B2, “Substituted biaryl piperazinyl-pyridine analogues” (Neurogen Corporation, priority 2004, dated 2012).

Target: T1, human capsaicin receptor (Homo sapiens, UniProt Q8NER1)
T1 construct: expressed in transfected cells; host or cells: HEK293, stably transfected with pBK-CMV construct
Assay: Calcium mobilization assay, determination of antagonist activity
Type: cell-based
Conditions: capsaicin at EC50; cells expressing human capsaicin receptor; Example 6
Procedure, shortened: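 HEK293 cells stably expressing full-length human TRPV1, loaded with Fluo-3 AM in KRH buffer pH 7.4, preincubated with compound (final 1-5 µM) in the dark at room temperature for 0.5-6 h, then stimulated with capsaicin at its EC50. FLIPR fluorescence gave IC50 as concentration halving the capsaicin response.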

T1 sequence (Q8NER1 whole entry): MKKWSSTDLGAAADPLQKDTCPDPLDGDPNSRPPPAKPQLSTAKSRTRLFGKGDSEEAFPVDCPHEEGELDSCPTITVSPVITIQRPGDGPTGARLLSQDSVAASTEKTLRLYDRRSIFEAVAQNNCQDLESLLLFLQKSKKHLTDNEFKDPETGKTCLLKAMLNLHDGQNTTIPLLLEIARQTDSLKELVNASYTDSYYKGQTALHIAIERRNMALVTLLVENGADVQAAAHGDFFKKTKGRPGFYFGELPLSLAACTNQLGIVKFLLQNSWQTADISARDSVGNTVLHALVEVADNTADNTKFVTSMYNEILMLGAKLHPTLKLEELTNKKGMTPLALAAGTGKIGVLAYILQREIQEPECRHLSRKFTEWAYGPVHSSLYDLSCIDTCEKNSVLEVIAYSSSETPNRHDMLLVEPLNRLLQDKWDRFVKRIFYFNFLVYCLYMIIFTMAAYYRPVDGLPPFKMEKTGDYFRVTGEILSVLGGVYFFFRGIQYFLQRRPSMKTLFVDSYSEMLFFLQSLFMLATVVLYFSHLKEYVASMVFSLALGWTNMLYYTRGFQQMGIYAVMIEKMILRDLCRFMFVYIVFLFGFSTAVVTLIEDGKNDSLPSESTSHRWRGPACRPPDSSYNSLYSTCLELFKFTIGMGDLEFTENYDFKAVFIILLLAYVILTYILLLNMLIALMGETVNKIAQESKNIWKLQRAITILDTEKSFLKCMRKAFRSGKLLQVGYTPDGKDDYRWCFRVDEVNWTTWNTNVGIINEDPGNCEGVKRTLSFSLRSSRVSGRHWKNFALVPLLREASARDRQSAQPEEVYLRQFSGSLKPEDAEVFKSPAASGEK

IC50 [µM]	Compound
≤ 1	CC1CCCN1c1nc(-c2ccc(F)c(Cl)c2)cc(N2CCN(c3ncc(C(=O)O)cc3Cl)C[C@H]2C)n1 (stereo partly drawn) [Example 9, 5-Chloro-6-{4-[6-(3-chloro-4-fluoro-phenyl)-2-(2-methyl-pyrrolidin-1-yl)-pyrimidin-4-yl]-3-(R)-methyl-piperazin-l-yl}-nicotinic acid]
≤ 1	C[C@@H]1CN(c2ncc(CCN(C)C)cc2Cl)CCN1c1cc(-c2ccc(F)c(Cl)c2)nc(N2CCC[C@H]2C)n1 [Example 186, 2-[5-chloro-6-((3R)-4-{6-(3-chloro-4-fluorophenyl)-2-[(2R)-2-methylpyrrolidin-1-yl]pyrimidin-4-yl}-3-methylpiperazin-1-yl)pyridin-3-yl]-N,N-dimethylethanamine]
≤ 1	Cc1cc(C(=O)O)cnc1N1CCN(c2cc(-c3cncc(Cl)c3)nc(N3CCC[C@H]3C)c2)[C@H](C)C1 [Example 180, 6-{4-[5′-Chloro-6-(2-(R)-methyl-pyrrolidin-1-yl)-[2,3′]bipyridinyl-4-yl]-3-(R)-methyl-piperazin-1-yl}-5-methyl-nicotinic acid]
≤ 1	Cc1cc(CC(=O)O)cnc1N1CCN(c2cc(-c3ccc(F)cc3)nc(N3CCC[C@H]3C)n2)[C@H](C)C1 [Example 105, (6-{4-[6-(4-Fluoro-phenyl)-2-(2-(R)-methyl-pyrrolidin-1-yl)-pyrimidin-4-yl]-3-(R)-methyl-piperazin-1-yl}-5-methyl-pyridin-3-yl)-acetic acid]
≤ 1	Cc1ccc(-c2cc(N3CCN(c4ncc(C(=O)O)cc4C)C[C@H]3C)nc(N3CCCC3C)n2)cc1 (stereo partly drawn) [Example 168, 5-Methyl-6-{3-(R)-methyl-4-[2-(2-methyl-pyrrolidin-1-yl)-6-p-tolyl-pyrimidin-4-yl]-piperazin-1-yl}-nicotinic acid]
≤ 1	CCOC(=O)c1cnc(N2CCN(c3cc(-c4ccncc4)nc(N4CCCC4C)n3)CC2)c(C)c1 (stereo not shown) [Example 56, 5-Methyl-6-{4-[2-(2-methyl-pyrrolidin-1-yl)-6-pyridin-4-yl-pyrimidin-4-yl]-piperazin-1-yl}-nicotinic acid ethyl ester]
≤ 1	Cc1cc(C(N)=O)cnc1N1CCN(c2cc(-c3ccccc3)nc(N3CCCC3C)n2)[C@H](C)C1 (stereo partly drawn) [Example 82, 5-Methyl-6-{3-(R)-methyl-4-[2-(2-methyl-pyrrolidin-1-yl)-6-phenyl-pyrimidin-4-yl]-piperazin-1-yl}-nicotinamide]
≤ 1	C[C@@H]1CN(c2ncc(C(N)=O)cc2Cl)CCN1c1cc(-c2ccc(F)c(Cl)c2)nc(N2CCC[C@H]2C)n1 [Example 102, 5-Chloro-6-{4-[6-(3-chloro-4-fluoro-phenyl)-2-(2-(R)-methyl-pyrrolidin-l-yl)-pyrimidin-4-yl]-3-(R)-methyl-piperazin-1-yl}-nicotinamide]
≤ 1	Cc1cc(CO)cnc1N1CCN(c2cc(-c3ccncc3)nc(N3CCCC3C)n2)[C@H](C)C1 (stereo partly drawn) [Example 65, (5-Methyl-6-{3-(R)-methyl-4-[2-(2-methyl-pyrrolidin-1-yl)-6-pyridin-4-yl-pyrimidin-4-yl]-piperazin-1-yl}-pyridin-3-yl)-methanol]

More lines, now with the values behind:

Compound	IC50 [µM]
Cc1cc(C(N)=O)cnc1N1CCN(c2cc(-c3ccc(F)cc3)nc(N3CCCC3C)n2)CC1 (stereo not shown) [Example 45, 6-{4-[6-(4-Fluoro-phenyl)-2-(2-methyl-pyrrolidin-1-yl)-pyrimidin-4-yl]-piperazin-1-yl}-5-methyl-nicotinamide]	≤ 1
Cc1cc(C(=O)N(C)C2CCN(C)C2)cnc1N1CCN(c2cc(-c3ccc(F)cc3)nc(N3CCCC3C)n2)CC1 (stereo not shown) [Example 138, 6-{4-[6-(4-fluorophenyl)-2-(2-methylpyrrolidin-1-yl)pyrimidin-4-yl]piperazin-1-yl}-N,5-dimethyl-N-(1-methylpyrrolidin-3-yl)nicotinamide]	≤ 1
CCOC(=O)c1cnc(N2CCN(c3cc(-c4ccc(F)c(Cl)c4)ncn3)[C@H](C)C2)c(Cl)c1 [Example 79, 5-Chloro-6-{4-[6-(3-chloro-4-fluoro-phenyl)-pyrimidin-4-yl]-3-(R)-methyl-piperazin-1-yl}-nicotinic acid ethyl ester]	≤ 1
CCOC(=O)c1cnc(N2CCN(c3cc(-c4cccc(C)c4)nc(N4CCCC4C)n3)CC2)c(C)c1 (stereo not shown) [Example 55, 5-Methyl-6-{4-[2-(2-methyl-pyrrolidin-1-yl)-6-m-tolyl-pyrimidin-4-yl]-piperazin-1-yl}-nicotinic acid ethyl ester]	≤ 1
Cc1cc(C(=O)N2CCC(C)CC2)cnc1N1CCN(c2cc(-c3ccc(F)cc3)nc(N3CCCC3C)n2)CC1 (stereo not shown) [Example 125, 4-(4-fluorophenyl)-6-(4-{3-methyl-5-[(4-methylpiperidin-1-yl)carbonyl]pyridin-2-yl}piperazin-1-yl)-2-(2-methylpyrrolidin-1-yl)pyrimidine]	≤ 1
Cc1cc(C(=O)N(C)CCN(C)C)cnc1N1CCN(c2cc(-c3ccc(F)cc3)nc(N3CCCC3C)n2)CC1 (stereo not shown) [Example 136, N-[2-(dimethylamino)ethyl]-6-{4-[6-(4-fluorophenyl)-2-(2-methylpyrrolidin-1-yl)pyrimidin-4-yl]piperazin-1-yl}-N,5-dimethylnicotinamide]	≤ 1
CC1CCCN1c1nc(-c2ccc(F)c(Cl)c2)cc(N2CCN(c3ncc(CO)cc3Cl)CC2)n1 (stereo not shown) [Example 10, (5-Chloro-6-{4-[6-(3-chloro-4-fluoro-phenyl)-2-(2-methyl-pyrrolidin-1-yl)-pyrimidin-4-yl]-piperazin-1-yl}-pyridin-3-yl)-methanol]	≤ 1
Cc1cc(C(=O)N(C)CCCN(C)C)cnc1N1CCN(c2cc(-c3ccc(F)cc3)nc(N3CCCC3C)n2)CC1 (stereo not shown) [Example 137, N-[3-(dimethylamino)propyl]-6-{4-[6-(4-fluorophenyl)-2-(2-methylpyrrolidin-1-yl)pyrimidin-4-yl]piperazin-1-yl}-N,5-dimethylnicotinamide]	≤ 1
Cc1cc(C(=O)N2CCCCCC2)cnc1N1CCN(c2cc(-c3ccc(F)cc3)nc(N3CCCC3C)n2)CC1 (stereo not drawn) [Example 126, l-[(6-{4-[6-(4-fluorophenyl)-2-(2-methylpyrrolidin-1-yl)pyrimidin-4-yl]piperazin-1-yl}-5-methylpyridin-3-yl)carbonyl]azepane]	≤ 1
Cc1cc(C(=O)NCc2ccc(F)cc2)cnc1N1CCN(c2cc(-c3ccc(F)cc3)nc(N3CCCC3C)n2)CC1 (stereo not shown) [Example 114, N-(4-fluorobenzyl)-6-{4-[6-(4-fluorophenyl)-2-(2-methylpyrrolidin-1-yl)pyrimidin-4-yl]piperazin-1-yl}-5-methylnicotinamide]	≤ 1
CCCN1CCN(c2nc(-c3ccc(F)c(Cl)c3)cc(N3CCN(c4ncc(CO)cc4Cl)CC3)n2)CC1 [Example 16, (5-Chloro-6-{4-[6-(3-chloro-4-fluoro-phenyl)-2-(4-propyl-piperazin-1-yl)-pyrimidin-4-yl]-piperazin-1-yl}-pyridin-3-yl)-methanol]	≤ 1
CC(C)N(C)c1nc(-c2ccc(F)cc2)cc(N2CCN(c3ncc(C(=O)O)cc3Cl)CC2)n1 [Example 160, 5-Chloro-6-{4-[6-(4-fluoro-phenyl)-2-(isopropyl-methyl-amino)-pyrimidin-4-yl]-piperazin-1-yl}-nicotinic acid]	≤ 1
CCOC(=O)c1cnc(N2CCN(c3cc(-c4ccc(F)cc4)nc(N(C)C)n3)[C@H](C)C2)c(C)c1 [Example 62, 6-{4-[2-Dimethylamino-6-(4-fluoro-phenyl)-pyrimidin-4-yl]-3-(R)-methyl-piperazin-1-yl}-5-methyl-nicotinic acid ethyl ester]	≤ 1
